Series [1] concerns Maryland B influenza virus. As to the kind of experiment: in vitro plaque inhibition, Maryland B influenza virus. The series is classed as cell-based. The note with it: for IC50: unidentified influenza virus, in Chlorocebus sabaeus, 72 h, read-out: I50, amount of drug which inhibits 50% of the plaques.
Series [2] deals with Ann Arbor influenza virus. In words: in vitro plaque inhibition, Ann Arbor influenza virus. It is filed as cell-based. Conditions: for IC50: unidentified influenza virus, in Chlorocebus sabaeus, 72 h, read-out: I50, amount of drug which inhibits 50% of the plaques.
Series [3] has as its system Herpes simplex. In words: in vitro plaque suppression test, Herpes simplex. The series is classed as cell-based, Herpes simplex virus.
Series [4] deals with Echo 10. In words: in vitro plaque suppression test, Echo 10. It is filed as cell-based, Echo 10 virus. The note with it: Echo 10, in vitro.
The test system of series [5] is Ann Arbor or Maryland B strains of influenza virus. As to the kind of experiment: in vivo survival of mice infected with influenza virus. The note with it: for minimal effective dose: read-out: in vivo dose at which there was a statistically significant increase in survival. Set-up: species or system White Swiss female mice, McAllister strain. How it is done:
In vivo activity was determined as follows: White Swiss female mice (11-13 g.) McAllister strain were infected with aqueous dilutions of Ann Arbor or Maryland B strains of influenza virus in an air borne injection apparatus. Graded dose levels of the drug were injected intraperitoneally (IP) or administered orally by gavage 24 and 4 hours preinfection and 24 and 48 hours postinfection. Date of death was determined. The drug was administered in water containing 2% of a surfactant. In Table 1, column 7, a dosage level for each drug is given at which there was a statistically significant increase in survival and column 6 gives the route of administration.

The subject of series [6] is Vaccinia. The series is classed as cell-based, Vaccinia virus. Conditions: in vitro.
Series [7] relates to Polio III. It is filed as cell-based, Polio III virus. The note with it: in vitro.
For series [8] the following is noted: compared with 6,7-dichloro congener.
The conditions of series [9]: rats, 100 mg/kg.
For series [10] the following is noted: dogs, 30-60 mg/kg.
[11] abbreviates: route IP, 24 and 4 hours preinfection and 24 and 48 hours postinfection.
Setting [12] is: route IP, OR, 24 and 4 hours preinfection and 24 and 48 hours postinfection.
The mark [13] stands for this setting: increased to 60 mg/day for 7 days.
Setting [14] is: nasogastric gavage, 30 mg/day for 14 days.

≈ marks a conversion by molar mass, not a printed value. Read-outs that look alike come from different tables or passages of the source.

We go through 14 compounds from US4264600A (priority 1979, dated 1981).

As to `O=C(OCCCl)c1nc2cc(Cl)c(Cl)cc2[nH]c1=O` [J], the IC50 in [1] turned out to be 58 µg/mL (≈ 180 µM); in series [2], 76 µg/mL (≈ 236 µM).
Regarding “Ethyl 6-methoxy-5-nitro-3,4-dihydro-3-oxo-2-quinoxaline Carboxylate and Ethyl 7-Methoxy-8-nitro-3,4-dihydro-3-oxo-2-quinoxaline Carboxylate”, the “Activity level (dose level at which activity was found)” value (from here on “Activity level”) in series [3] and in [4] was 2000 µg/mg throughout. Besides, the “in vivo dose at which there was a statistically significant increase in survival” value in series [5] (setting [11]) is 80 mg/kg.
On to “ethyl 6(7)-nitro-3,4-dihydro-3-oxo-2-quinoxaline carboxylate”, for which, in series [1] (Maryland B influenza virus, in vitro, 72 hours at 37° C.), the “I50, amount of drug which inhibits 50% of the plaques” value came to 40 µg/mL. Also, in series [5] (setting [11]), the “in vivo dose at which there was a statistically significant increase in survival” value is 80 mg/kg. For the same compound, the “Activity level” value in series [6] came to 2000 µg/mg.
Regarding “Ethyl 6-Nitro-8-chloro-3,4-dihydro-3-oxo-2-quinoxaline carboxylate and Ethyl 7-Nitro-5-chloro-3,4-dihydro-3-oxo-2-quinoxaline Carboxylate [S]”, the “Activity level” value in [3], in series [4] and in series [6] was 2000 µg/mg throughout. In addition, in series [5] (setting [11]), the “in vivo dose at which there was a statistically significant increase in survival” value was found to be 80 mg/kg.
For `COC(=O)c1nc2cc(Cl)c(Cl)cc2[nH]c1=O` [C], in series [1], the IC50 was under 10 µg/mL. Further, the minimal effective dose in [5] (ip) was determined as 60 mg/kg.
Take `O=C(O)c1nc2cc(Cl)c(Cl)cc2[nH]c1=O` [E]: the IC50 in series [1] was under 71 µg/mL; in series [2], under 100 µg/mL. The minimal effective dose in series [5] (ip) was 50 mg/kg.
As to “Ethyl 6(7)-Chloro-7(6)-bromo-3,4-dihydro-3-oxo-2-quinoxalineCarboxylate”, the “Activity level” value in [7] and in [6] was 2000 µg/mg in each case. The “in vivo dose at which there was a statistically significant increase in survival” value in series [5] (setting [11]) worked out at 80 mg/kg.
Consider `O=C(OCC1CCC1)c1nc2cc(Cl)c(Cl)cc2[nH]c1=O` [L, Cyclobutylmethyl 6,7-Dichloro-3,4-dichloro-3-oxo-2-quinoxaline Carboxylate], for which the IC50 turned out to be 15 µg/mL (≈ 45.8 µM) in series [1] and 20 µg/mL (≈ 61.1 µM) in [2].
Regarding `CCOC(=O)c1nc2cc(I)c(I)cc2[nH]c1=O` [F, Ethyl 6,7-Diiodo-3,4-dihydro-3-oxo-2-quinoxaline Carboxylate], the “Ann Arbor influenza virus in vitro activity (in words)” value in series [2] (Ann Arbor influenza virus, in vitro) was “Active”. The minimal effective dose in series [5] turned out to be 80 mg/kg.
Consider `C=CCOC(=O)c1nc2cc(Cl)c(Cl)cc2[nH]c1=O` [K], for which the IC50 turned out to be 33 µg/mL (≈ 110 µM) in series [1] and 75 µg/mL (≈ 251 µM) in series [2].
Regarding `O=C(O)CCc1nc2cc(Cl)c(Cl)cc2[nH]c1=O` [B], the minimal effective dose in [5] (ip) was 50 mg/kg.
Regarding `CCCCOC(=O)c1nc2cc(Cl)c(Cl)cc2[nH]c1=O` [G], the IC50 in [1] came to 38 µg/mL (≈ 121 µM).
With `CCOC(=O)c1nc2cc(Br)c(Br)cc2[nH]c1=O` [M], in [8], the “toxicity in monkeys relative to its 6,7-dichloro congener” value is given as “much less toxic”. For the same compound, the minimal effective dose in [5] (setting [12]) fell in the range of 40 to 80 mg/kg. In series [9], the “degree of hepatotoxicity (both drugs)” value is recorded as “equal, though minor” and the “degree of nephrotoxicity (both drugs)” value is “equal, though minor”. Further, in series [10], the “degree of hepatotoxicity (both drugs)” value is “equal, though minor” and the “degree of nephrotoxicity (both drugs)” value is “equal, though minor”.
Take `CCOC(=O)c1nc2cc(Cl)c(Cl)cc2[nH]c1=O` [D]: the IC50 in [1] amounted to 38 µg/mL (≈ 132 µM). The minimal effective dose in series [5] (setting [12]) came to 40 mg/kg. For the setting “30 then 60 mg/day”, the blood urea nitrogen entry is “elevated”, the creatinine levels entry is given as “elevated” and the kidney damage result was “evidence of kidney damage”. Further, under setting [13], the AP result was “remain elevated” and the SGPT result is given as “returned to normal”. Besides, under setting [14], the AP result is recorded as “moderate increases”; the SGPT entry is on record as “moderate increases”; the “liver damage (from AP and SGPT)” value is “suggestive of liver damage”. In series [9], the “degree of hepatotoxicity (both drugs)” value was “equal, though minor” and the “degree of nephrotoxicity (both drugs)” value is “equal, though minor”. In series [10], the “degree of hepatotoxicity (both drugs)” value is reported as “equal, though minor” and the “degree of nephrotoxicity (both drugs)” value is “equal, though minor”.
